target: T1, Zcchc11 enzyme (Homo sapiens, UniProt Q5TAX3); test: TUTase assay (Zcchc11 assay, Lin28a-dependent polyuridylation of pre-let-7); type: biochemical; settings: Lin28a-dependent Zcchc11 (Z11) TUTase activity; read-out: Potency Lin28a-dep Z11 IC50
T1 construct: made in house; host or cells: HEK293 cells (Zcchc11); E. coli Rosetta II (LIN28A)
T1 sequence (Q5TAX3 212-1420): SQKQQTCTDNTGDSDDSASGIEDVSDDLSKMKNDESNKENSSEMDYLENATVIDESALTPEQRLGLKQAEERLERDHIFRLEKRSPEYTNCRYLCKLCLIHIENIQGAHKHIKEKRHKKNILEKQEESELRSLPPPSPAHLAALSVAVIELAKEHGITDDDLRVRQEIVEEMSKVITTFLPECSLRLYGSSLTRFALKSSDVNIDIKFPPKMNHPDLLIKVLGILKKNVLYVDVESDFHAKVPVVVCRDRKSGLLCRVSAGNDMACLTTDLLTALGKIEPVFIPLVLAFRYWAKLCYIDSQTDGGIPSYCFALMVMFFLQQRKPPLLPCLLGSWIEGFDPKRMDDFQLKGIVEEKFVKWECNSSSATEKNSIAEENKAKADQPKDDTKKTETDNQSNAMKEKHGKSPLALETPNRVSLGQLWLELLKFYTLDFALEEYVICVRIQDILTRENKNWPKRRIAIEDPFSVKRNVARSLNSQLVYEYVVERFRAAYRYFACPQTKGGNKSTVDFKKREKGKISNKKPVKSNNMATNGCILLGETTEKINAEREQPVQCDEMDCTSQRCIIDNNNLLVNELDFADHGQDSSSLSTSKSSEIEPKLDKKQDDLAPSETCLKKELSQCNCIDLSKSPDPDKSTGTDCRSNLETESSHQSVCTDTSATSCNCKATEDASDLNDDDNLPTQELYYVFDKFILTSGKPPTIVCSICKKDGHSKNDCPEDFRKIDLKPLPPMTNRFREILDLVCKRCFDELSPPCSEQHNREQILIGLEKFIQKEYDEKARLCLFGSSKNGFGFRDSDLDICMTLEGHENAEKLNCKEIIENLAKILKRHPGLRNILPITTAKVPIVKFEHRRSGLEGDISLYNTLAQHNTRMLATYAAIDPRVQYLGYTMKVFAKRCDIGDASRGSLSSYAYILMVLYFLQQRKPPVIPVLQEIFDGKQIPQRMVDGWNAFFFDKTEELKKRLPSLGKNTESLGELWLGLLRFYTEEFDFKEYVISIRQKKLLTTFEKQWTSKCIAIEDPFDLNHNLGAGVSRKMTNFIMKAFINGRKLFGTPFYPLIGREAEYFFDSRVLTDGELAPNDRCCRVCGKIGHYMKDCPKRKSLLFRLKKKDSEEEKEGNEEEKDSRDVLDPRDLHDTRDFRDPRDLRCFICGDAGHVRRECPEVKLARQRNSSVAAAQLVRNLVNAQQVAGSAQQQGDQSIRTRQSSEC
In short: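 Potency is measured as inhibition of LIN28A-driven U-tail addition to 2 nM pre-let-7 by 0.2 nM HEK293-derived Zcchc11 fragment with 5 uM UTP at room temperature. Tail growth appears as fluorescein quenching by an annealing rhodamine-A20 probe.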

Row | Compound | IC50
1 | Cc1cc2c(=O)c(C(=O)O)cn(-c3ccc(N4CC(N(C)C)C4)nc3)c2cc1N1C(=O)CC1COc1ccccn1 (stereo not shown) [Compound 298, 1-(6-(3-(dimethyl-amino)azetidin-1-yl)pyridin-3-yl)-6-methyl-4-oxo-7-(2-oxo-4-((pyridin-2-yloxy)methyl)azetidin-1-yl)-1,4-dihydro-quinoline-3-carboxylic acid] | 10000 to 50000 nM
2 | Nc1ccc(-n2cc(C(=O)O)c(=O)c3cc(F)c(N4CCC[C@@H]4COc4ncccc4F)cc32)cn1 [Compound 316, 1-(6-Aminopyridin-3-yl)-6-fluoro-7-[(2R)-2-[[(3-fluoropyridin-2-yl)oxy]methyl]pyrrolidin-1-yl]-4-oxoquinoline-3-carboxylic acid] | ≤ 1000 nM
3 | Nc1ccc(-n2cc(C(=O)O)c(=O)c3cc(F)c(N4CCC[C@@H]4COc4ncccc4Cl)cc32)cn1 [Compound 317, 1-(6-Aminopyridin-3-yl)-7-[(2R)-2-[[(3-chloropyridin-2-yl)oxy]methyl]pyrrolidin-1-yl]-6-fluoro-4-oxoquinoline-3-carboxylic acid] | ≤ 1000 nM
4 | CN(C)C1CN(c2ccc(-n3cc(C(=O)O)c(=O)c4cc(Cl)c(N5CCC[C@@H]5COc5ncccc5Cl)cc43)cn2)C1 [Compound 318, 6-Chloro-7-[(2R)-2-[[(3-chloropyridin-2-yl)oxy]methyl]pyrrolidin-1-yl]-1-[6-[3-(dimethyl-amino)azetidin-1-yl]pyridin-3-yl]-4-oxoquinoline-3-carboxylic acid] | ≤ 1000 nM
5 | O=C(O)c1cn(-c2cnn(C3CN(CC(F)F)C3)c2)c2cc(N3CCC[C@@H]3COc3ncccc3Cl)c(Cl)cc2c1=O [Compound 319, 6-Chloro-7-[(2R)-2-[[(3-chloropyridin-2-yl)oxy]methyl]pyrrolidin-1-yl]-1-[1-[1-(2,2-difluoroethyl)azetidin-3-yl]pyrazol-4-yl]-4-oxoquinoline-3-carboxylic acid] | ≤ 1000 nM
6 | CN(C)C1CN(c2ccc(-n3cc(C(=O)O)c(=O)c4cc(Cl)c(N5CCC[C@@H]5COc5cnccc5Cl)cc43)cn2)C1 [Compound 320, 6-Chloro-7-[(2R)-2-[[(4 chloropyridin-3-yl)oxy]methyl]pyrrolidin-1-yl]-1-[6-[3-(dimethyl-amino)azetidin-1-yl]pyridin-3-yl]-4-oxoquinoline-3-carboxylic acid] | ≤ 1000 nM
7 | CN(C)C1CN(c2ccc(-n3cc(C(=O)O)c(=O)c4ccc(N5C(=O)CCCC5COc5ccccn5)cc43)cn2)C1 (stereo not shown) [Compound 323, 1-[6-[3-(Dimethyl-amino)azetidin-1-yl]pyridin-3-yl]-4-oxo-7-[2-oxo-6-[(pyridin-2-yloxy)methyl]piperidin-1-yl]quinoline-3-carboxylic acid] | > 50000 nM
8 | CN(C)C1CN(c2ccc(-n3cc(C(=O)O)c(=O)c4cc(Cl)c(N5C(=O)CCCC5COc5ccccn5)cc43)cn2)C1 (stereo not shown) [Compound 324, 6-Chloro-1-[6-[3-(dimethyl-amino)azetidin-1-yl]pyridin-3-yl]-4-oxo-7-[2-oxo-6-[(pyridin-2-yloxy)methyl]piperidin-1-yl]quinoline-3-carboxylic acid] | 10000 to 50000 nM
9 | CN(C)C1CN(c2ccc(-n3cc(C(=O)O)c(=O)c4cc(F)c(N5CC(c6cccnc6)C[C@@H]5COc5ncccc5Cl)cc43)cn2)C1 (stereo partly drawn) [Compound 325, 7-[(2R)-2-[[(3-Chloropyridin-2-yl)oxy]methyl]-4-(pyridin-3-yl)pyrrolidin-1-yl]-1-[6-[3-(dimethyl-amino)azetidin-1-yl]pyridin-3-yl]-6-fluoro-4-oxoquinoline-3-carboxylic acid] | ≤ 1000 nM

Continued, values first:

Row | IC50 | Compound
10 | ≤ 1000 nM | COc1ccc(Cl)c(OC[C@H]2CCCN2c2cc3c(cc2Cl)c(=O)c(C(=O)O)cn3-c2ccc(N3CC(N(C)C)C3)nc2)n1 [Compound 299, (R)-6-chloro-7-(2-(((3-chloro-6-methoxy-pyridin-2-yl)oxy)methyl)pyrrolidin-1-yl)-1-(6-(3-(dimethyl-amino)azetidin-1-yl)pyridin-3-yl)-4-oxo-1,4-dihydro-quinoline-3-carboxylic acid]
11 | ≤ 1000 nM | O=C(O)c1cn2c3cc(c(Cl)cc3c1=O)N1CCC[C@@H]1COc1nc(ccc1Cl)OCCCNc1ccc-2cn1 [Compound 300, (R)-26,63-dichloro-24-oxo-21,24-dihydro-5,7-dioxa-11-aza-2(1,7)-quinolina-1(5,2),6(2, 6)-dipyridina-3(1,2)-pyrrolidina cyclo-undecaphane-23-carboxylic acid]
12 | ≤ 1000 nM | CN(C)C1CN(c2ccc(-n3cc(C(=O)O)c(=O)c4cc(Cl)c(N5CC(F)(F)C[C@@H]5COc5ncccc5Cl)nc43)cn2)C1 [Compound 301, (R)-6-chloro-7-(2-(((3-chloropyridin-2-yl)oxy)methyl)-4,4-difluoro-pyrrolidin-1-yl)-1-(6-(3-(dimethyl-amino)azetidin-1-yl)pyridin-3-yl)-4-oxo-1,4-dihydro-1,8-naphthyridine-3-carboxylic acid]
13 | ≤ 1000 nM | COCCN(C)C1CN(c2ccc(-n3cc(C(=O)O)c(=O)c4cc(F)c(N5CCC[C@@H]5COc5nc(OC)ccc5Cl)cc43)cn2)C1 [Compound 302, (R)-7-(2-(((3-chloro-6-methoxy-pyridin-2-yl)oxy)methyl)pyrrolidin-1-yl)-6-fluoro-1-(6-(3-((2-methoxyethyl) (methyl)amino)azetidin-1-yl)pyridin-3-yl)-4-oxo-1,4-dihydro-quinoline-3-carboxylic acid]
14 | ≤ 1000 nM | CN(C)C1CN(c2ncc(-n3cc(C(=O)O)c(=O)c4cc(Cl)c(N5CC(c6cccnc6)C[C@@H]5COc5ncccc5Cl)cc43)cn2)C1 (stereo partly drawn) [Compound 303, 6-chloro-7-((2R)-2-(((3-chloropyridin-2-yl)oxy)methyl)-4-(pyridin-3-yl)pyrrolidin-1-yl)-1-(2-(3-(dimethyl-amino)azetidin-1-yl)pyrimidin-5-yl)-4-oxo-1,4-dihydro-quinoline-3-carboxylic acid]
15 | ≤ 1000 nM | CN(C)C1CN(c2ccc(-n3cc(C(=O)O)c(=O)c4cc(Cl)c(N5CC(c6cn[nH]c6)C[C@@H]5COc5ncccc5Cl)cc43)cn2)C1 (stereo partly drawn) [Compound 304, 6-chloro-7-((2R)-2-(((3-chloropyridin-2-yl)oxy)methyl)-4-(1H-pyrazol-4-yl)pyrrolidin-1-yl)-1-(6-(3-(dimethyl-amino)azetidin-1-yl)pyridin-3-yl)-4-oxo-1,4-dihydro-quinoline-3-carboxylic acid]
16 | ≤ 1000 nM | CC1CCN(c2cc3c(cc2Cl)c(=O)c(C(=O)O)cn3-c2ccc(N3CC(N(C)C)C3)nc2)C1COc1ncccc1Cl (stereo not shown) [Compound 306, 6-chloro-7-(2-(((3-chloropyridin-2-yl)oxy)methyl)-3-methyl-pyrrolidin-1-yl)-1-(6-(3-(dimethyl-amino)azetidin-1-yl)pyridin-3-yl)-4-oxo-1,4-dihydro-quinoline-3-carboxylic acid]
17 | ≤ 1000 nM | Cc1ccc(Cl)c(OC[C@H]2C[C@H]3C[C@H]3N2c2cc3c(cc2Cl)c(=O)c(C(=O)O)cn3-c2ccc(N(C)C)nc2)n1 [Compound 308, 6-chloro-7-[(1R,3R,5R)-3-{[(3-chloro-6-methylpyridin-2-yl)oxy]methyl}-2-azabicyclo [3.1.0]hexan-2-yl]-1-[6-(dimethyl-amino)pyridin-3-yl]-4-oxoquinoline-3-carboxylic acid]
18 | ≤ 1000 nM | Cc1ccc(Cl)c(OC[C@H]2C[C@H]3C[C@H]3N2c2cc3c(cc2F)c(=O)c(C(=O)O)cn3-c2ccc(N(C)C)nc2)n1 [Compound 309]
19 | ≤ 1000 nM | CN(C)C1CN(c2ccc(-n3cc(C(=O)O)c(=O)c4cc(Cl)c(N5C(COc6ncccc6Cl)CCS5(=O)=O)cc43)cn2)C1 (stereo not shown) [Compound 311, 6-chloro-7-(3-(((3-chloropyridin-2-yl)oxy)methyl)-1,1-dioxidoiso-thiazolidin-2-yl)-1-(6-(3-(dimethyl-amino)azetidin-1-yl)pyridin-3-yl)-4-oxo-1,4-dihydro-quinoline-3-carboxylic acid]

Reference: patent publication US12662491B2 (Redona Therapeutics, Inc., priority 2020, dated 2026)
